Laboratory results taken from ChEMBL document CHEMBL1136984, “Orally active C-6 heteroaryl- and heterocyclyl-substituted imidazo[1,2-a]pyridine acid pump antagonists (APAs)” (Bioorg Med Chem Lett, 2009).

Key:
[1] = buffer, pH 7.4
[2] = Blood clearance in dog at 1 mg/kg/hr, iv dosed in saline containing hydroxylpropyl-beta-cyclodextrin and DMSO; format: ADME, organism-based, Canis lupus familiaris; design: route intravenous
in vivo [3] = settings: rat, blood, iv, 1 mg/kg
in vivo [4] = settings: rat, iv, 1 mg/kg
in vivo [5] = settings: dog, iv, 1 mg/kg
in vivo [6] = settings: dog, iv, 1 mg/kg; remark: listed apart in the source
in vivo [7] = settings: rat, po, 1 mg/kg
in vivo [8] = settings: dog, po, 1 mg/kg
in vivo [9] = settings: rat, iv, 1 mg/kg; remark: listed apart in the source

In the case of CCc1cccc(C)c1CNc1cc(C(N)=O)cn2c(C)c(C)nc12, the CHI [1] is reported as 2.52.
Cc1cccc(C)c1CNc1cc(-n2ccc(=O)cc2)cn2c(C)c(C)nc12 gave a CHI [1] of 1.58.
In the case of Cc1cccc(CNc2cc(-n3ccccc3=O)cn3c(C)c(C)nc23)c1, the CHI [1] is reported as 2.17.
Work on Cc1nc2c(NCc3cccnc3)cc(-n3ccccc3=O)cn2c1C yielded a CHI [1] of 0.73.
Cc1cccc(C)c1CNc1cc(-n2cc(C(N)=O)ccc2=O)cn2c(C)c(C)nc12 showed a CHI [1] of 1.71.
Molecule Cc1cccc(C)c1CNc1cc(N2CCCCC2=O)cn2c(C)c(C)nc12 has a CHI [1] of 2.79.
For Cc1cccc(C)c1CNc1cc(-n2cncn2)cn2c(C)c(C)nc12, the clearance [2] was 50 mL/min/kg, the CHI [1] was 3.07 and the clearance (in vivo [3]) was 83 mL/min/kg. It also gave a Vd (in vivo [4]) of 3.5 L/kg, a Vd (in vivo [5]) of 6.6 L/kg and a half-life (in vivo [6]) of 2.3 h. The bioavailability (in vivo [7]) was 21% and the bioavailability (in vivo [8]) was 12%.
With Cc1cccc(C)c1CNc1cc(-n2ccccc2=O)cn2c(CO)c(C)nc12 the clearance [2] was 10 mL/min/kg, the clearance (in vivo [3]) was 37 mL/min/kg and the Vd (in vivo [4]) was 1 L/kg. The Vd (in vivo [5]) was 1.1 L/kg, the half-life (in vivo [9]) was 5.3 h and the half-life (in vivo [6]) was 1.6 h. The bioavailability (in vivo [7]) was 28% and the bioavailability (in vivo [8]) was 36%.
COc1ccccc1CNc1cc(-n2ccccc2=O)cn2c(C)c(C)nc12 gave a CHI [1] of 1.93.
Cc1nc2c(NCc3ccc(F)cc3Cl)cc(-n3ccccc3=O)cn2c1C showed a CHI [1] of 2.26.
Work on Cc1cn2cc(-n3ccccc3=O)cc(NCc3c(C)cccc3C)c2n1 yielded a clearance (in vivo [3]) of 58 mL/min/kg, a Vd (in vivo [4]) of 1.8 L/kg and a half-life (in vivo [9]) of 0.5 h. It also gave a bioavailability (in vivo [7]) of 18%.
Work on Cc1cccc(C)c1COc1cc(-n2ccccc2=O)cn2c(C)c(C)nc12 yielded a CHI [1] of 2.12.
In the case of Cc1cccc(C)c1CNc1cc(-n2cnccc2=O)cn2c(C)c(C)nc12, the CHI [1] is reported as 2.33.
In the case of Cc1nc2c3c(c(-n4ccccc4=O)cn2c1C)CC[C@@H](c1ccccc1)N3, the CHI [1] is reported as 3.35.
Cc1nc2c(NCc3ccc(F)cc3Cl)cc(-n3cncn3)cn2c1C showed a CHI [1] of 2.61.
Work on Cc1cccc(C)c1CNc1cc(C(=O)NCCO)cn2c(C)c(C)nc12 [LINAPRAZAN] yielded a CHI [1] of 2.14.
